Measured values: paper PMC5509998, “Autotaxin–lysophosphatidic acid–LPA 3 signaling at the embryo‐epithelial boundary controls decidualization pathways” (The EMBO Journal, 2017)

Target: T1, autotaxin (ATX, ENPP2) (Mus musculus, UniProt Q9R1E6)
T1 construct: recombinant ATX; mouse ENPP proteins expressed in HEK293A cells (culture supernatants)
Test: colorimetric phosphodiesterase assay with p-nitrophenyl TMP as substrate
Assay type: biochemical

Work on `CCCCCn1c(-c2ccc(C(=O)NCCN3CCOCC3)cc2)cc(=O)n2cc(-c3ccc(Cl)cc3)nc12` [S15-00826] yielded an IC50 of ~38 nM.
